Results published in ChEMBL document CHEMBL5620413, “Novel pterostilbene derivatives ameliorate heart failure by reducing oxidative stress and inflammation through regulating Nrf2/NF-κB signaling pathway” (Eur J Med Chem, 2023).
The source made the active and inactive calls. No cut-off for these calls is given here.

Experiments:
H9c2 [1] = test: Antiinflammatory activity against rat H9c2 cells assessed as decrease in DOX-induced IL-6 expression upto 10 uM preincubated for 1 hr followed by DOX treatment for 12 hrs by Western blot analysis; format: functional, cell-based; conditions: time 13.0 hrs
Mus musculus [2] = test: Protection against cardiac dysfunction C57BL/6J mouse model assessed as increase in DOX-reduced heart rate at 7 mg/kg, ip administered daily for 4 weeks by echocardiography; format: functional, organism-based
Mus musculus [3] = test: Protection against cardiac dysfunction C57BL/6J mouse model assessed as decrease in DOX-induced accumulation of inflammatory cells at 7 mg/kg, ip administered daily for 4 weeks by H and E staining based analysis; format: functional, organism-based
Mus musculus [4] = test: Protection against cardiac dysfunction C57BL/6J mouse model assessed as decrease in DOX-induced serum ALT level at 7 mg/kg, ip administered daily for 4 weeks; format: functional, organism-based
RAW264.7 [5] = test: Inhibition of ROS generation in mouse RAW264.7 cells preincubated for 1 hr followed by LPS treatment for 24 hrs by DCFH-DA dye based analysis; format: functional, cell-based; conditions: dose <= 10.0 µM, time 25.0 hrs
H9c2 [6] = test: Antiinflammatory activity against rat H9c2 cells assessed as decrease in DOX-induced NF-kappaB phosphorylation upto 10 uM preincubated for 1 hr followed by DOX treatment for 12 hrs by Western blot analysis; format: functional, cell-based; conditions: time 13.0 hrs
RAW264.7 [7] = test: Antiinflammatory activity in mouse RAW264.7 cells assessed as decrease in LPS-induced iNOS expression preincubated for 1 hr followed by LPS treatment for 24 hrs by Western blot analysis; format: functional, cell-based; conditions: dose <= 10.0 µM, time 25.0 hrs
RAW264.7 [8] = test: Inhibition of ROS generation in mouse RAW264.7 cells assessed as increase in DOX-reduced CAT expression upto 10 uM preincubated for 1 hr followed by DOX treatment for 12 hrs by Western blot analysis; format: functional, cell-based; conditions: time 13.0 hrs
RAW264.7 [9] = test: Antiinflammatory activity in mouse RAW264.7 cells assessed as LPS-induced NO production preincubated for 1 hr followed by LPS treatment for 24 hrs by Griess reagent based assay; format: functional; conditions: time 25 hrs
Mus musculus [10] = test: Antiinflammatory activity in cardiac dysfunction C57BL/6J mouse model assessed as decrease in DOX-induced TNF-alpha expression at 7 mg/kg, ip administered daily for 4 weeks by Western blot analysis; format: functional, organism-based
H9c2 [11] = test: Inhibition of ROS generation in rat H9c2 cells preincubated for 1 hr followed by LPS treatment for 24 hrs by DCFH-DA dye based analysis; format: functional, cell-based; conditions: dose <= 10.0 µM, time 25.0 hrs
RAW264.7 [12] = test: Antiinflammatory activity against mouse RAW264.7 cells assessed as decrease in LPS-induced TNF-alpha expression upto 10 uM preincubated for 1 hr followed by LPS treatment for 24 hrs by Western blot analysis; format: functional, cell-based; conditions: time 25.0 hrs
H9c2 [13] = test: Inhibition of ROS generation in rat H9c2 cells assessed as increase in DOX-reduced GPX1 expression upto 10 uM preincubated for 1 hr followed by DOX treatment for 12 hrs by Western blot analysis; format: functional, cell-based; conditions: time 13.0 hrs
H9c2 [14] = test: Inhibition of ROS generation in rat H9c2 cells assessed as increase in DOX-reduced Nrf2 expression upto 10 uM preincubated for 1 hr followed by DOX treatment for 12 hrs by Western blot analysis; format: functional, cell-based; conditions: time 13.0 hrs
Mus musculus [15] = test: Protection against cardiac dysfunction C57BL/6J mouse model assessed as increase in DOX-reduced heart size at 7 mg/kg, ip administered daily for 4 weeks; format: functional, organism-based
Mus musculus [16] = test: Protection against cardiac dysfunction C57BL/6J mouse model assessed as increase in DOX-reduced cardiac CAT expression at 7 mg/kg, ip administered daily for 4 weeks by Western blot analysis; format: functional, organism-based
Mus musculus [17] = test: Protection against cardiac dysfunction C57BL/6J mouse model assessed as decrease in DOX-induced myocardial fibrosis at 7 mg/kg, ip administered daily for 4 weeks by Sirius Red staining based analysis; format: functional, organism-based
H9c2 [18] = test: Antiinflammatory activity against rat H9c2 cells assessed as decrease in DOX-induced IL-1beta expression upto 10 uM preincubated for 1 hr followed by DOX treatment for 12 hrs by Western blot analysis; format: functional, cell-based; conditions: time 13.0 hrs
Mus musculus [19] = test: Protection against cardiac dysfunction C57BL/6J mouse model assessed as increase in DOX-reduced ratio of heart weight to body weight at 7 mg/kg, ip administered daily for 4 weeks; format: functional, organism-based
Mus musculus [20] = test: Protection against cardiac dysfunction C57BL/6J mouse model assessed as decrease in DOX-induced serum HBDH level at 7 mg/kg, ip administered daily for 4 weeks; format: functional, organism-based
RAW264.7 [21] = test: Antiinflammatory activity against mouse RAW264.7 cells assessed as decrease in LPS-induced IL-1beta mRNA expression upto 10 uM preincubated for 1 hr followed by LPS treatment for 24 hrs by qRT-PCR analysis; format: functional, cell-based; conditions: time 25.0 hrs
Mus musculus [22] = test: Protection against cardiac dysfunction C57BL/6J mouse model assessed as decrease in DOX-induced serum CK level at 7 mg/kg, ip administered daily for 4 weeks; format: functional, organism-based
Mus musculus [23] = test: Protection against cardiac dysfunction C57BL/6J mouse model assessed as decrease in DOX-induced serum ALP level at 7 mg/kg, ip administered daily for 4 weeks; format: functional, organism-based
H9c2 [24] = test: Inhibition of ROS generation in rat H9c2 cells assessed as increase in DOX-reduced CAT expression upto 10 uM preincubated for 1 hr followed by DOX treatment for 12 hrs by Western blot analysis; format: functional, cell-based; conditions: time 13.0 hrs
H9c2 [25] = test: Inhibition of ROS generation in rat H9c2 cells assessed as increase in DOX-reduced SOD expression upto 10 uM preincubated for 1 hr followed by DOX treatment for 12 hrs by Western blot analysis; format: functional, cell-based; conditions: time 13.0 hrs
RAW264.7 [26] = test: Inhibition of ROS generation in mouse RAW264.7 cells assessed as increase in LPS-reduced Nrf2 expression upto 10 uM preincubated for 1 hr followed by LPS treatment for 24 hrs by Western blot analysis; format: functional, cell-based; conditions: time 25.0 hrs
H9c2 [27] = test: Antiinflammatory activity against rat H9c2 cells assessed as decrease in LPS-induced NF-kappaB phosphorylation upto 10 uM preincubated for 1 hr followed by LPS treatment for 24 hrs by Western blot analysis; format: functional, cell-based; conditions: time 25.0 hrs
Mus musculus [28] = test: Protection against cardiac dysfunction C57BL/6J mouse model assessed as increase in DOX-reduced cardiac SOD2 expression at 7 mg/kg, ip administered daily for 4 weeks by Western blot analysis; format: functional, organism-based
Mus musculus [29] = test: Antiinflammatory activity in cardiac dysfunction C57BL/6J mouse model assessed as decrease in DOX-induced NF-kappaB expression at 7 mg/kg, ip administered daily for 4 weeks by Western blot analysis; format: functional, organism-based
H9c2 [30] = test: Inhibition of ROS generation in rat H9c2 cells preincubated for 1 hr followed by DOX treatment for 12 hrs by DCFH-DA dye based analysis; format: functional, cell-based; conditions: dose <= 10.0 µM, time 13.0 hrs
Mus musculus [31] = test: Antiinflammatory activity in cardiac dysfunction C57BL/6J mouse model assessed as decrease in DOX-induced IL-1beta expression at 7 mg/kg, ip administered daily for 4 weeks by Western blot analysis; format: functional, organism-based
RAW264.7 [32] = test: Inhibition of ROS generation in mouse RAW264.7 cells preincubated for 1 hr followed by DOX treatment for 12 hrs by DCFH-DA dye based analysis; format: functional, cell-based; conditions: dose <= 10.0 µM, time 13.0 hrs
RAW264.7 [33] = test: Antiinflammatory activity against mouse RAW264.7 cells assessed as decrease in DOX-induced NF-kappaB phosphorylation upto 10 uM preincubated for 1 hr followed by DOX treatment for 12 hrs by Western blot analysis; format: functional, cell-based; conditions: time 13.0 hrs

CCCCOc1ccc(/C=C/c2cc(OC)cc(OC)c2C2CC(C)=NN2C(C)=O)cc1 (stereo not drawn)
Activity (H9c2 [1]): Active | Activity (Mus musculus [2]): Active | Activity (Mus musculus [3]): Active | Activity (Mus musculus [4]): Active | inhibition (RAW264.7 [5]): Dose-Dependent Effect | Activity (H9c2 [6]): Active | Activity (RAW264.7 [7]): Dose-Dependent Effect | inhibition (RAW264.7 [8]): Active | Activity (RAW264.7 [9]): 0.198 µM | Activity (Mus musculus [10]): Active | inhibition (H9c2 [11]): Dose-Dependent Effect | Activity (RAW264.7 [12]): Active | inhibition (H9c2 [13]): Active | inhibition (H9c2 [14]): Active | Activity (Mus musculus [15]): Active | Activity (Mus musculus [16]): Active | Activity (Mus musculus [17]): Active | Activity (H9c2 [18]): Active | Activity (Mus musculus [19]): Active | Activity (Mus musculus [20]): Active | Activity (RAW264.7 [21]): Active | Activity (Mus musculus [22]): Active | Activity (Mus musculus [23]): Active | inhibition (H9c2 [24]): Active | inhibition (H9c2 [25]): Active | inhibition (RAW264.7 [26]): Active | Activity (H9c2 [27]): Active | Activity (Mus musculus [28]): Active | Activity (Mus musculus [29]): Active | inhibition (H9c2 [30]): Dose-Dependent Effect | Activity (Mus musculus [31]): Active | inhibition (RAW264.7 [32]): Dose-Dependent Effect | Activity (RAW264.7 [33]): Active
